Experimental data as given in US20210230203A1, “Amphiphilic Kanamycin Compositions and Methods” (priority 2020, published 2021).
In brackets after ≈: the same amount, converted by molar mass.

What was measured:
[1] = tested on: Cryptococcus neoformans; assay: MIC against yeast, CLSI M27 & M38 (Table 2); conditions: 24-72 hours
[2] = tested on: C. auris; assay: MIC against various species, CLSI M27 & M38 (Table 4); conditions: 24-72 hours
[3] = tested on: C. parapsilosis; assay: as above; conditions: C. parapsilosis QC ATCC 22019; Table 4; RPMI 0.165M MOPS; 24-72 hours
[4] = tested on: Candida albicans MYA2876; assay: MIC against fungal strains (Table 1); assay type: cell-based; conditions: Candida albicans MYA2876
[5] = tested on: C. albicans; assay: MIC against various species, CLSI M27 & M38 (Table 4); conditions: 24-72 hours
[6] = tested on: Rhodotorula pilimanae; assay: MIC against fungal strains (Table 1); assay type: cell-based
[7] = tested on: Apaphysomyces; assay: MIC against various species, CLSI M27 & M38 (Table 4); assay type: cell-based, Apophysomyces; conditions: 24-72 hours
[8] = tested on: Candida guillermondii; assay: MIC against yeast, CLSI M27 & M38 (Table 2); conditions: 24-72 hours
[9] = tested on: L. prolificans; assay: MIC against various species, CLSI M27 & M38 (Table 4); conditions: L. prolificans LP1; Table 4; RPMI 0.165M MOPS; 24-72 hours
[10] = Cryptococcus neoformans CN1, RPMI 0.165M MOPS
[11] = Cryptococcus neoformans H99, RPMI 0.165M MOPS
[12] = Cryptococcus neoformans USC1597, RPMI 0.165M MOPS
[13] = C. auris DI17-46, RPMI 0.165M MOPS
[14] = C. auris DI17-47, RPMI 0.165M MOPS
[15] = C. auris DI17-48, RPMI 0.165M MOPS
[16] = C. albicans CA1, RPMI 0.165M MOPS
[17] = C. albicans CA2, RPMI 0.165M MOPS
[18] = C. albicans CA3, RPMI 0.165M MOPS
[19] = Apaphysomyces APO1, RPMI 0.165M MOPS
[20] = Apaphysomyces APO2, RPMI 0.165M MOPS
[21] = Apaphysomyces APO3, RPMI 0.165M MOPS
[22] = Candida guillermondii CGUI1, RPMI 0.165M MOPS
[23] = Candida guillermondii CGUI2, RPMI 0.165M MOPS
[24] = Candida guillermondii CGUI3, RPMI 0.165M MOPS

With `CCCCCCCCCCCCCCCC(=O)NC[C@H]1O[C@H](O[C@H]2[C@H](O)[C@@H](O[C@H]3O[C@H](CO)[C@@H](O)[C@H](N)[C@H]3O)[C@H](N)C[C@@H]2N)[C@H](O)[C@@H](O)[C@@H]1O` [KI06] the “Minimum inhibitory concentration 50%” value [1, 10] was 4 µg/mL (≈ 5.53 µM), the “Minimum inhibitory concentration 100%” value [1, 10] was 4 µg/mL (≈ 5.53 µM) and the “Minimum inhibitory concentration 50%” value [1, 11] was 4 µg/mL (≈ 5.53 µM). The “Minimum inhibitory concentration 100%” value [1, 11] was 4 µg/mL (≈ 5.53 µM), the “Minimum inhibitory concentration 50%” value [1, 12] was 4 µg/mL (≈ 5.53 µM) and the “Minimum inhibitory concentration 100%” value [1, 12] was 4 µg/mL (≈ 5.53 µM). For the same compound, the “Minimum inhibitory concentration 50%” value [2, 13] was 4 µg/mL (≈ 5.53 µM), the “Minimum inhibitory concentration 100%” value [2, 13] was 8 µg/mL (≈ 11.1 µM) and the “Minimum inhibitory concentration 50%” value [2, 14] was 2 µg/mL (≈ 2.77 µM). The “Minimum inhibitory concentration 100%” value [2, 14] was 4 µg/mL (≈ 5.53 µM), the “Minimum inhibitory concentration 50%” value [2, 15] was 1 µg/mL (≈ 1.38 µM) and the “Minimum inhibitory concentration 100%” value [2, 15] was 4 µg/mL (≈ 5.53 µM). The “Minimum inhibitory concentration 50%” value [3] was 4 µg/mL (≈ 5.53 µM), the “Minimum inhibitory concentration 100%” value [3] was 8 µg/mL (≈ 11.1 µM) and the Minimum inhibitory concentration [4] was 8 µg/mL (≈ 11.1 µM). The “Minimum inhibitory concentration 50%” value [5, 16] was 4 µg/mL (≈ 5.53 µM), the “Minimum inhibitory concentration 100%” value [5, 16] was 4 µg/mL (≈ 5.53 µM) and the “Minimum inhibitory concentration 50%” value [5, 17] was 4 µg/mL (≈ 5.53 µM). The “Minimum inhibitory concentration 100%” value [5, 17] was 8 µg/mL (≈ 11.1 µM), the “Minimum inhibitory concentration 50%” value [5, 18] was 2 µg/mL (≈ 2.77 µM) and the “Minimum inhibitory concentration 100%” value [5, 18] was 4 µg/mL (≈ 5.53 µM). For the same compound, the Minimum inhibitory concentration [6] was 4 µg/mL (≈ 5.53 µM), the “Minimum inhibitory concentration 50%” value [7, 19] was 2 µg/mL (≈ 2.77 µM) and the “Minimum inhibitory concentration 100%” value [7, 19] was 2 µg/mL (≈ 2.77 µM). The “Minimum inhibitory concentration 50%” value [7, 20] was 1 µg/mL (≈ 1.38 µM), the “Minimum inhibitory concentration 100%” value [7, 20] was 4 µg/mL (≈ 5.53 µM) and the “Minimum inhibitory concentration 50%” value [7, 21] was 1 µg/mL (≈ 1.38 µM). The “Minimum inhibitory concentration 100%” value [7, 21] was 4 µg/mL (≈ 5.53 µM), the “Minimum inhibitory concentration 50%” value [8, 22] was 4 µg/mL (≈ 5.53 µM) and the “Minimum inhibitory concentration 100%” value [8, 22] was 8 µg/mL (≈ 11.1 µM). The “Minimum inhibitory concentration 50%” value [8, 23] was 4 µg/mL (≈ 5.53 µM), the “Minimum inhibitory concentration 100%” value [8, 23] was 8 µg/mL (≈ 11.1 µM) and the “Minimum inhibitory concentration 50%” value [8, 24] was 4 µg/mL (≈ 5.53 µM). For the same compound, the “Minimum inhibitory concentration 100%” value [8, 24] was 8 µg/mL (≈ 11.1 µM), the “Minimum inhibitory concentration 50%” value [9] was 2 µg/mL (≈ 2.77 µM) and the “Minimum inhibitory concentration 100%” value [9] was 2 µg/mL (≈ 2.77 µM).
